{"source": "paper PMC5218480", "about": "(PLoS ONE, 2017)", "tested_on": "MV-4-11 cells", "assay": "Gene expression microarray analysis (Affymetrix PrimeView) and GSEA", "format": "cell-based, human", "design": "RFU PODN (11730768_x_at) / Fold change /veh PODN (11730768_x_at) / RFU LINC00158 (11744669_a_at) / Fold change /veh LINC00158 (11744669_a_at) / RFU DUSP10 (11751237_a_at) / Fold change /veh DUSP10 (11751237_a_at) / RFU ID3 (11757404_x_at) / Fold change /veh ID3 (11757404_x_at) / RFU PLEKHG5 (11737974_s_at) / Fold change /veh PLEKHG5 (11737974_s_at) / RFU LRRC4B (11730491_at) / Fold change /veh LRRC4B (11730491_at) / RFU GIMAP4 (11747438_a_at) / Fold change /veh GIMAP4 (11747438_a_at) / RFU KRT8 (11758183_x_at) / Fold change /veh KRT8 (11758183_x_at) / RFU CNN1 (11734310_a_at) / Fold change /veh CNN1 (11734310_a_at) / RFU VPS37D (11726825_at) / Fold change /veh VPS37D (11726825_at) / RFU C10orf10 (11716522_x_at) / Fold change /veh C10orf10 (11716522_x_at) / RFU KIR2DL2 /// KIR2DL4 /// KIR2DL5A /// KIR2DL5B /// KIR2DS1 /// KIR2DS2 /// KIR2DS3 /// KIR2DS4 /// KIR3DL3 /// KIR3DL3 /// KIR3DS1 (11738374_at) / Fold change /veh KIR2DL2 /// KIR2DL4 /// KIR2DL5A /// KIR2DL5B /// KIR2DS1 /// KIR2DS2 /// KIR2DS3 /// KIR2DS4 /// KIR3DL3 /// KIR3DL3 /// KIR3DS1 (11738374_at) / RFU C1QL1 (11718748_at) / Fold change /veh C1QL1 (11718748_at) / RFU TMPRSS4 (11747572_a_at) / Fold change /veh TMPRSS4 (11747572_a_at) / RFU HAMP (11756126_x_at) / Fold change /veh HAMP (11756126_x_at) / RFU RNFT2 (11725882_a_at) / Fold change /veh RNFT2 (11725882_a_at) / RFU NR4A2 (11747474_a_at) / Fold change /veh NR4A2 (11747474_a_at) / RFU ABCC12 (11746883_a_at) / Fold change /veh ABCC12 (11746883_a_at) / RFU TMEM136 (11760407_x_at) / Fold change /veh TMEM136 (11760407_x_at) / RFU CLDN22 /// WWC2 (11732394_at) / Fold change /veh CLDN22 /// WWC2 (11732394_at) / RFU HLA-DPB1 (11760878_x_at) / Fold change /veh HLA-DPB1 (11760878_x_at) / RFU SPINT1 (11716480_a_at) / Fold change /veh SPINT1 (11716480_a_at) / RFU GAP43 (11754022_s_at) / Fold change /veh GAP43 (11754022_s_at) / RFU A4GNT (11735810_at) / Fold change /veh A4GNT (11735810_at) / RFU PRB3 (11715151_x_at) / Fold change /veh PRB3 (11715151_x_at) / RFU TUBB4B (11761932_at) / Fold change /veh TUBB4B (11761932_at) / RFU CAPN14 (11732068_a_at) / Fold change /veh CAPN14 (11732068_a_at) / RFU TMCC2 (11721928_a_at) / Fold change /veh TMCC2 (11721928_a_at) / RFU IRGQ (11745062_a_at) / Fold change /veh IRGQ (11745062_a_at) / RFU FAM174B (11720279_a_at) / Fold change /veh FAM174B (11720279_a_at) / RFU TMPRSS4 (11748680_a_at) / Fold change /veh TMPRSS4 (11748680_a_at) / RFU FAM212B (11763350_a_at) / Fold change /veh FAM212B (11763350_a_at) / RFU PLEKHG5 (11743358_a_at) / Fold change /veh PLEKHG5 (11743358_a_at) / RFU ZSCAN30 (11745921_a_at) / Fold change /veh ZSCAN30 (11745921_a_at) / RFU CMKLR1 (11741424_a_at) / Fold change /veh CMKLR1 (11741424_a_at) / RFU LOC101060620 /// MAPK8IP1 (11723275_at) / Fold change /veh LOC101060620 /// MAPK8IP1 (11723275_at) / RFU SPTSSB (11747773_x_at) / Fold change /veh SPTSSB (11747773_x_at) / RFU PRSS12 (11739890_at) / Fold change /veh PRSS12 (11739890_at) / RFU BIN1 (11741810_x_at) / Fold change /veh BIN1 (11741810_x_at) / RFU WNT11 (11732464_a_at) / Fold change /veh WNT11 (11732464_a_at) / RFU C10orf10 (11716521_a_at) / Fold change /veh C10orf10 (11716521_a_at) / RFU C5orf56 (11738089_at) / Fold change /veh C5orf56 (11738089_at) / RFU CYB561 (11721691_x_at) / Fold change /veh CYB561 (11721691_x_at) / RFU ANKRD19P (11752326_a_at) / Fold change /veh ANKRD19P (11752326_a_at) / RFU OR2T12 /// OR2T33 /// OR2T8 (11738714_s_at) / Fold change /veh OR2T12 /// OR2T33 /// OR2T8 (11738714_s_at) / RFU VCAN (11748164_a_at) / Fold change /veh VCAN (11748164_a_at) / RFU JSRP1 (11732532_at) / Fold change /veh JSRP1 (11732532_at) / RFU KRTAP10-11 (11738290_x_at) / Fold change /veh KRTAP10-11 (11738290_x_at) / RFU MYO3A (11730013_a_at) / Fold change /veh MYO3A (11730013_a_at) / RFU EBF3 (11725865_a_at) / Fold change /veh EBF3 (11725865_a_at) / RFU CAMK2N1 (11719241_x_at) / Fold change /veh CAMK2N1 (11719241_x_at) / RFU C5orf56 (11738088_a_at) / Fold change /veh C5orf56 (11738088_a_at) / RFU OLFML3 (11715873_a_at) / Fold change /veh OLFML3 (11715873_a_at) / RFU LOC100653217 /// NTM (11731650_a_at) / Fold change /veh LOC100653217 /// NTM (11731650_a_at) / RFU MAPK11 (11762145_a_at) / Fold change /veh MAPK11 (11762145_a_at) / RFU FIZ1 (11724087_x_at) / Fold change /veh FIZ1 (11724087_x_at) / RFU OASL (11726364_x_at) / Fold change /veh OASL (11726364_x_at) / RFU SOX15 (11748057_x_at) / Fold change /veh SOX15 (11748057_x_at) / RFU CD79A (11719716_a_at) / Fold change /veh CD79A (11719716_a_at) / RFU HIST1H1D (11736915_at) / Fold change /veh HIST1H1D (11736915_at) / RFU CASKIN2 (11723855_a_at) / Fold change /veh CASKIN2 (11723855_a_at) / RFU LOC730098 (11760151_x_at) / Fold change /veh LOC730098 (11760151_x_at) / RFU OR4N2 (11742367_at) / Fold change /veh OR4N2 (11742367_at) / RFU PRRT2 (11749266_a_at) / Fold change /veh PRRT2 (11749266_a_at) / RFU SNX32 (11753110_a_at) / Fold change /veh SNX32 (11753110_a_at) / RFU CDHR5 (11726645_a_at) / Fold change /veh CDHR5 (11726645_a_at) / RFU RCAN1 (11760418_a_at) / Fold change /veh RCAN1 (11760418_a_at) / RFU FAM167A (11723789_a_at) / Fold change /veh FAM167A (11723789_a_at) / RFU FAM26E (11764081_at) / Fold change /veh FAM26E (11764081_at) / RFU ISYNA1 (11749810_s_at) / Fold change /veh ISYNA1 (11749810_s_at) / RFU ACY1 (11761880_at) / Fold change /veh ACY1 (11761880_at) / RFU 11764098_at / Fold change /veh 11764098_at / RFU SAMD14 (11745864_x_at) / Fold change /veh SAMD14 (11745864_x_at) / RFU NPB (11741838_a_at) / Fold change /veh NPB (11741838_a_at) / RFU TMPRSS6 (11731388_a_at) / Fold change /veh TMPRSS6 (11731388_a_at) / RFU KRTAP10-2 (11738614_at) / Fold change /veh KRTAP10-2 (11738614_at) / RFU ARHGAP8 /// PRR5-ARHGAP8 (11727945_x_at) / Fold change /veh ARHGAP8 /// PRR5-ARHGAP8 (11727945_x_at) / RFU KRTAP5-7 /// NADSYN1 (11734609_at) / Fold change /veh KRTAP5-7 /// NADSYN1 (11734609_at) / RFU RASL12 (11751679_a_at) / Fold change /veh RASL12 (11751679_a_at) / RFU CDKN2B (11736163_a_at) / Fold change /veh CDKN2B (11736163_a_at) / RFU PRF1 (11729649_at) / Fold change /veh PRF1 (11729649_at) / RFU, ZNF638 /// ZNF638-IT1 / Fold change vs veh, ZNF638 /// ZNF638-IT1 / RFU, PANK3 / Fold change vs veh, PANK3 / RFU, SH3YL1 / Fold change vs veh, SH3YL1 / RFU, ZEB2 / Fold change vs veh, ZEB2 / RFU, NRIP1 / Fold change vs veh, NRIP1 / RFU, PTTG1IP / Fold change vs veh, PTTG1IP / RFU, CAPN2 / Fold change vs veh, CAPN2 / RFU, MED14 / Fold change vs veh, MED14 / RFU, SNORA58 / Fold change vs veh, SNORA58 / RFU, C1orf63 / Fold change vs veh, C1orf63 / RFU, LRRFIP1 / Fold change vs veh, LRRFIP1 / RFU, NDUFAF7 / Fold change vs veh, NDUFAF7 / RFU, SLC12A2 / Fold change vs veh, SLC12A2 / RFU, IBTK / Fold change vs veh, IBTK / RFU, ESF1 / Fold change vs veh, ESF1 / Fold change vs veh, TMEM50B / RFU, TAOK1 / Fold change vs veh, TAOK1 / RFU, ACBD3 / Fold change vs veh, ACBD3 / RFU, TMA16 / Fold change vs veh, TMA16 / RFU, RWDD3 / Fold change vs veh, RWDD3 / RFU, BCAT1 / Fold change vs veh, BCAT1 / RFU, EDEM3 / Fold change vs veh, EDEM3 / RFU, TMEM33 / Fold change vs veh, TMEM33 / RFU, WDR75 / Fold change vs veh, WDR75 / RFU, AHCTF1 / Fold change vs veh, AHCTF1 / RFU, TFRC / Fold change vs veh, TFRC / RFU, ZDHHC17 / Fold change vs veh, ZDHHC17 / RFU, NOM1 / Fold change vs veh, NOM1 / RFU, ARL8B / Fold change vs veh, ARL8B / RFU, ZBTB11 / Fold change vs veh, ZBTB11 / RFU, TAMM41 / Fold change vs veh, TAMM41 / RFU, KIAA1704 /// LOC100996395 / Fold change vs veh, KIAA1704 /// LOC100996395 / RFU, ING1 / Fold change vs veh, ING1 / RFU, TRMT61B / Fold change vs veh, TRMT61B / RFU, FUBP3 / Fold change vs veh, FUBP3 / RFU, TP53 / Fold change vs veh, TP53 / RFU, TNKS2 / Fold change vs veh, TNKS2 / RFU, ZFP14 / Fold change vs veh, ZFP14 / RFU, ACTR2 / Fold change vs veh, ACTR2 / RFU, PPP3R1 / Fold change vs veh, PPP3R1 / RFU, PIK3R1 / Fold change vs veh, PIK3R1 / RFU, HNRNPA1 / Fold change vs veh, HNRNPA1 / RFU, RNF170 / Fold change vs veh, RNF170 / RFU, ZNF28 / Fold change vs veh, ZNF28 / RFU, RNGTT / Fold change vs veh, RNGTT / RFU, OGT / Fold change vs veh, OGT / RFU, BRD1 / Fold change vs veh, BRD1 / RFU, MARS / Fold change vs veh, MARS / RFU, ZNF655 / Fold change vs veh, ZNF655 / RFU, FAHD1 / Fold change vs veh, FAHD1 / RFU, BDP1 / Fold change vs veh, BDP1 / RFU, LRRCC1 / Fold change vs veh, LRRCC1 / RFU, ARID1A / Fold change vs veh, ARID1A / RFU, ZNF146 / Fold change vs veh, ZNF146 / RFU, ZNF330 / Fold change vs veh, ZNF330 / RFU, GPN3 / Fold change vs veh, GPN3 / RFU, C9orf123 / Fold change vs veh, C9orf123 / RFU, N4BP2L2 / Fold change vs veh, N4BP2L2 / RFU, ARFIP1 / Fold change vs veh, ARFIP1 / RFU, FAM179B / Fold change vs veh, FAM179B / RFU, BCL10 / Fold change vs veh, BCL10 / RFU, UHRF1BP1L / Fold change vs veh, UHRF1BP1L / RFU, BET1 / Fold change vs veh, BET1 / RFU, CNOT2 / Fold change vs veh, CNOT2 / RFU, ZNF268 / Fold change vs veh, ZNF268 / Fold change vs veh, ZNF507 / RFU, DGCR2 / Fold change vs veh, DGCR2 / RFU, WDSUB1 / Fold change vs veh, WDSUB1 / Fold change vs veh, HSP90B1 /// MIR3652 / RFU, ADSS / Fold change vs veh, ADSS / RFU, GK / Fold change vs veh, GK / RFU, ZNF148 / Fold change vs veh, ZNF148 / RFU, TAF9 / Fold change vs veh, TAF9 / RFU, SLC1A5 / Fold change vs veh, SLC1A5 / RFU, SLMO2 / Fold change vs veh, SLMO2 / RFU, ABCC4 / Fold change vs veh, ABCC4 / RFU, LOC101060439 /// RAP1B / Fold change vs veh, LOC101060439 /// RAP1B / RFU, RFX7 / Fold change vs veh, RFX7 / RFU, GTPBP10 / Fold change vs veh, GTPBP10 / RFU, CNEP1R1 / Fold change vs veh, CNEP1R1 / RFU, BIVM-ERCC5 /// ERCC5 / Fold change vs veh, BIVM-ERCC5 /// ERCC5 / RFU, ILF3 / Fold change vs veh, ILF3 / RFU 11762660_at / Fold change /veh 11762660_at / RFU VCAN (11757783_s_at) / Fold change /veh VCAN (11757783_s_at) / RFU DDX43 (11728927_at) / Fold change /veh DDX43 (11728927_at) / RFU KRT8 (11758188_x_at) / Fold change /veh KRT8 (11758188_x_at) / RFU NKD1 (11759106_at) / Fold change /veh NKD1 (11759106_at) / RFU SRD5A1 (11742802_a_at) / Fold change /veh SRD5A1 (11742802_a_at) / RFU TPSAB1 /// TPSB2 (11721975_s_at) / Fold change /veh TPSAB1 /// TPSB2 (11721975_s_at) / RFU GSTM3 (11746129_a_at) / Fold change /veh GSTM3 (11746129_a_at) / RFU IL23R (11737362_x_at) / Fold change /veh IL23R (11737362_x_at) / RFU TMEM51 (11727254_a_at) / Fold change /veh TMEM51 (11727254_a_at) / RFU PIWIL2 (11732686_x_at) / Fold change /veh PIWIL2 (11732686_x_at) / RFU ORM1 (11744905_x_at) / Fold change /veh ORM1 (11744905_x_at) / RFU CCDC152 (11743942_at) / Fold change /veh CCDC152 (11743942_at) / RFU ECM1 (11717891_a_at) / Fold change /veh ECM1 (11717891_a_at) / RFU IL23R (11748794_a_at) / Fold change /veh IL23R (11748794_a_at) / RFU TNFAIP8L3 (11732012_x_at) / Fold change /veh TNFAIP8L3 (11732012_x_at) / RFU MBOAT4 (11741988_at) / Fold change /veh MBOAT4 (11741988_at) / RFU 11764193_at / Fold change /veh 11764193_at / RFU TMEM53 (11763286_at) / Fold change /veh TMEM53 (11763286_at) / RFU MAGEB2 (11727129_at) / Fold change /veh MAGEB2 (11727129_at) / RFU TMEM200A (11744735_a_at) / Fold change /veh TMEM200A (11744735_a_at) / RFU CCDC152 (11751479_a_at) / Fold change /veh CCDC152 (11751479_a_at) / RFU FAM211A (11726209_a_at) / Fold change /veh FAM211A (11726209_a_at) / RFU RGS16 (11746705_a_at) / Fold change /veh RGS16 (11746705_a_at) / RFU VCAN (11755009_s_at) / Fold change /veh VCAN (11755009_s_at) / RFU RHOB (11743442_s_at) / Fold change /veh RHOB (11743442_s_at) / RFU RGS16 (11720943_a_at) / Fold change /veh RGS16 (11720943_a_at) / RFU RGS16 (11720944_at) / Fold change /veh RGS16 (11720944_at) / RFU, VPS4B / Fold change vs veh, VPS4B / RFU, CREB1 / Fold change vs veh, CREB1 / RFU, DNAJC13 / Fold change vs veh, DNAJC13 / RFU, GNAQ / Fold change vs veh, GNAQ / RFU, CDK5R1 / Fold change vs veh, CDK5R1 / RFU, ZRANB3 / Fold change vs veh, ZRANB3 / RFU, CUL4A / Fold change vs veh, CUL4A / RFU, CCNY / Fold change vs veh, CCNY / RFU, UFL1 / Fold change vs veh, UFL1 / RFU, COG3 / Fold change vs veh, COG3 / RFU, DIAPH2 / Fold change vs veh, DIAPH2 / RFU, SKA2 / Fold change vs veh, SKA2 / RFU, AFF3 / Fold change vs veh, AFF3 / RFU, LMF1 / Fold change vs veh, LMF1 / RFU, IPO11 / Fold change vs veh, IPO11 / RFU, DFFB / Fold change vs veh, DFFB / RFU, FOXP1 / Fold change vs veh, FOXP1 / RFU, CARD8 / Fold change vs veh, CARD8 / RFU, STRN3 / Fold change vs veh, STRN3 / RFU, ADK / Fold change vs veh, ADK / RFU, RASSF2 / Fold change vs veh, RASSF2 / RFU, WIPF1 / Fold change vs veh, WIPF1 / RFU, LARP1B / Fold change vs veh, LARP1B / RFU, RASA1 / Fold change vs veh, RASA1 / RFU, RB1 / Fold change vs veh, RB1 / RFU, PPFIA1 / Fold change vs veh, PPFIA1 / RFU, MAT2A / Fold change vs veh, MAT2A / RFU, CCT5 / Fold change vs veh, CCT5 / RFU, WDR92 / Fold change vs veh, WDR92 / RFU, CUX1 / Fold change vs veh, CUX1 / RFU, TTC7A / Fold change vs veh, TTC7A / RFU, TMEM135 / Fold change vs veh, TMEM135 / RFU, DEPTOR / Fold change vs veh, DEPTOR / RFU, CPM / Fold change vs veh, CPM / RFU, DNAJB6 / Fold change vs veh, DNAJB6 / RFU, CACNA2D3 / Fold change vs veh, CACNA2D3 / RFU, DTX4 / Fold change vs veh, DTX4 / RFU, TFCP2 / Fold change vs veh, TFCP2 / RFU, GMCL1 /// GMCL1P1 / Fold change vs veh, GMCL1 /// GMCL1P1 / RFU, AEBP2 / Fold change vs veh, AEBP2 / RFU, SNHG1 /// SNORD22 /// SNORD25 /// SNORD26 /// SNORD27 /// SNORD28 /// SNORD29 /// SNORD31 / Fold change vs veh, SNHG1 /// SNORD22 /// SNORD25 /// SNORD26 /// SNORD27 /// SNORD28 /// SNORD29 /// SNORD31 / Fold change (Aza/veh), C12orf56 (ProbeSet 11735607_a_at) / Fold change (ACY-1035/veh), C12orf56 (ProbeSet 11735607_a_at) / Fold change (Aza/veh), FGFR1OP (ProbeSet 11751329_s_at) / Fold change (ACY-1035/veh), FGFR1OP (ProbeSet 11751329_s_at) / Fold change (Aza/veh), VPS36 (ProbeSet 11739960_a_at) / Fold change (ACY-1035/veh), VPS36 (ProbeSet 11739960_a_at) / RFU SYPL1 (11715823_x_at) / Fold change /veh SYPL1 (11715823_x_at) / RFU IGFBP7 (11715501_s_at) / Fold change /veh IGFBP7 (11715501_s_at) / RFU REEP3 (11722064_at) / Fold change /veh REEP3 (11722064_at) / RFU IGLL1 (11728026_x_at) / Fold change /veh IGLL1 (11728026_x_at): dose or concentration left out as unconfirmed", "conditions": "MV-4-11 cells, 48 hours"}
{"molecule": "Nc1ncn([C@@H]2O[C@H](CO)[C@@H](O)[C@H]2O)c(=O)n1", "note": "[azacitidine]", "values": [{"measurement": "Fold change /veh TUBB4B (11761932_at)", "value": 1.00}]}
